The target of the experiment is Bacillus anthracis lethal factor protease (Bacillus anthracis, UniProt P15917). Nature of the experiment: biochemical.
Sequence of Bacillus anthracis lethal factor protease (P15917 34-809 limits assumed): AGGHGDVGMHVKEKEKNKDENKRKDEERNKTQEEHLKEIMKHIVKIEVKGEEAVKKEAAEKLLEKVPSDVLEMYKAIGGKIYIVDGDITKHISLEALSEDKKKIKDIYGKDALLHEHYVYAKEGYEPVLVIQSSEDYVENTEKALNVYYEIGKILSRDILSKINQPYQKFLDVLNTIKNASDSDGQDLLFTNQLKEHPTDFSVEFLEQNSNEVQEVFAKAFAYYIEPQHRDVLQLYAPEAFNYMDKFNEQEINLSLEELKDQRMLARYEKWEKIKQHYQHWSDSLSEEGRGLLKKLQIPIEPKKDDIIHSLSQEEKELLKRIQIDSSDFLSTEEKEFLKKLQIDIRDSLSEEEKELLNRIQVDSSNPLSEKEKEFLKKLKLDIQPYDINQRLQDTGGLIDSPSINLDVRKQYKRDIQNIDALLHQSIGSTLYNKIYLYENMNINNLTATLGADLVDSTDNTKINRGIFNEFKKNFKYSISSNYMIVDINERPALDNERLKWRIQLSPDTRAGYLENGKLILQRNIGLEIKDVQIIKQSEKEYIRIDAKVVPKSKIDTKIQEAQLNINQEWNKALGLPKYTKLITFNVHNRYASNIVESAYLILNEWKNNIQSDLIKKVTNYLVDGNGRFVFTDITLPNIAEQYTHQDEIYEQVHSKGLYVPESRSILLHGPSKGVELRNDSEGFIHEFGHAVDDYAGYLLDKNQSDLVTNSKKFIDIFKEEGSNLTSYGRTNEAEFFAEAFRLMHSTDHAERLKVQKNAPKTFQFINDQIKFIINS
`CCCC[C@@H](Cc1ccccc1)C(=O)NO` (stereo in doubt) [Compound 167550, 2-Benzyl-hexanoic acid hydroxyamide] returned a Ki of 65200 nM.

In turn, `O=C(NO)[C@@H](CCCCNCc1ccc(F)cc1)Cc1ccc(F)c(Cl)c1` [Compound 168164, (S)-2-(3-Chloro-4-fluoro-benzyl)-6-(4-fluoro-benzylamino)-hexanoic acid hydroxyamide] registered a Ki of 200 nM.

Regarding `Cc1cc(COCCCC[C@@H](Cc2cc(C)c(F)c(C)c2)C(=O)NO)ccc1F` [Compound 168141, (S)-2-(4-fluoro-3,5-dimethylbenzyl)-6-(4-fluoro-3-methylbenzyloxy)-N-hydroxyhexanamide], the inhibition constant (Ki) turned out to be 3600 nM.

As for `Cc1cc(CC(C#N)C(=O)NO)cc(C)c1F` (centres unmarked) [Compound 167914, 2-Cyano-3-(4-fluoro-3,5-dimethyl-phenyl)-N-hydroxy-propionamide], the Ki is 47500 nM.

The molecule `Cc1cc(CNCCCC[C@@H](Cc2cc(C)c(F)c(C)c2)C(=O)NO)ccc1F` [Compound 168050, (S)-2-(4-Fluoro-3,5-dimethyl-benzyl)-6-(4-fluoro-3-methyl-benzylamino)-hexanoic acid hydroxyamide] yielded an inhibition constant (Ki) of 74 nM.

Turning to `Cc1cc(C[C@H](CCCCNCc2cnccn2)C(=O)NO)cc(C)c1F` [Compound 168179, (S)-2-(4-Fluoro-3,5-dimethyl-benzyl)-6-[(pyrazin-2-ylmethyl)-amino]-hexanoic acid hydroxyamide], the inhibition constant (Ki) is 710 nM.

Molecule `Cc1cc(CC(C(=O)NO)c2ccc(Br)cc2)cc(C)c1F` (centres unmarked) [Compound 167856, 2-(4-Bromo-phenyl)-3-(4-fluoro-3,5-dimethyl-phenyl)-N-hydroxy-propionamide] had a Ki of 620 nM.

The molecule `Cc1cc(C[C@H](CCC/C=C/C(C)C)C(=O)NO)cc(C)c1F` [Compound 168023, (S)-2-(4-Fluoro-3,5-dimethyl-benzyl)-8-methyl-non-6-enoic acid hydroxyamide] had a Ki of 1970 nM.

As to `Cc1cc(CCCCCC[C@@H](Cc2ccc(Cl)cc2)C(=O)NO)ccc1F` [Compound 168134, (S)-2-(4-Chloro-benzyl)-8-(4-fluoro-3-methyl-phenyl)-octanoic acid hydroxyamide], the Ki was 64500 nM.

Molecule `Cc1cc(CCCN(C)CC[C@@H](Cc2ccc(Cl)cc2)C(=O)NO)cc(C)c1F` [Compound 168156, 2R-(4-Chloro-benzyl)-4-{[3-(4-fluoro-3,5-dimethyl-phenyl)-propyl]-methyl-amino}-N-hydroxy-butyramide] yielded a Ki of 3290 nM.

For `Cc1cc(CCC(=O)NO)cc(C)c1F` [Compound 167857, 3-(4-Fluoro-3,5-dimethyl-phenyl)-N-hydroxy-propionamide], affinity was put at a Ki of 1340 nM. This Ki lies about 2.5-fold lower than the previous one.

The molecule `Cc1cc(C[C@@H](CCC/C=C/C(C)C)C(=O)NO)cc(C)c1F` [Compound 168051, (R)-2-(4-Fluoro-3,5-dimethyl-benzyl)-8-methyl-non-6-enoic acid hydroxyamide] had a Ki of 51600 nM. Compared with the last molecule, the Ki is about 39-fold higher.

`CCC(CC)CNCCCC[C@@H](Cc1cc(C)c(F)c(C)c1)C(=O)NO` [Compound 168171, (S)-6-(2-Ethyl-butylamino)-2-(4-fluoro-3,5-dimethyl-benzyl)-hexanoic acid hydroxyamide] had a Ki of 250 nM.

`Cc1cc(CCCCCC[C@@H](Cc2cc(C)c(F)c(C)c2)C(=O)NO)ccc1F` [Compound 168124, (S)-2-(4-Fluoro-3,5-dimethyl-benzyl)-8-(4-fluoro-3-methyl-phenyl)-octanoic acid hydroxyamide] returned a Ki of 10300 nM.

`Cc1cc(C[C@H](CCCCNCCc2ccc(F)cc2)C(=O)NO)cc(C)c1F` [Compound 168122, (S)-2-(4-Fluoro-3,5-dimethyl-benzyl)-6-[2-(4-fluoro-phenyl)-ethylamino]-hexanoic acid hydroxyamide]: the affinity corresponds to a Ki of 65 nM. This Ki lies about 160-fold lower than the previous one.

With `Cc1cc(C[C@@H](C(=O)NO)c2ccc(Br)cc2)cc(C)c1F` [Compound 168009, (R)-2-(4-Bromo-phenyl)-3-(4-fluoro-3,5-dimethyl-phenyl)-N-hydroxy-propionamide], the affinity corresponds to a Ki of 770 nM.

In turn, `Cc1cc(CNCCCC[C@@H](Cc2ccc(F)c(C)c2)C(=O)NO)ccc1F` [Compound 168139, (S)-2-(4-Fluoro-3-methyl-benzyl)-6-(4-fluoro-3-methyl-benzylamino)-hexanoic acid hydroxyamide] had an inhibition constant (Ki) of 280 nM.

As for `Cc1cc(C[C@H](CCCCNCc2cccc(-c3ccccc3)c2)C(=O)NO)ccc1F` [Compound 168140, (S)-6-[(Biphenyl-3-ylmethyl)-amino]-2-(4-fluoro-3-methyl-benzyl)-hexanoic acid hydroxyamide], the Ki was 700 nM.

Turning to `Cc1cc(C[C@@H](CCCCCC(C)C)C(=O)NO)cc(C)c1F` [Compound 168052, (R)-2-(4-Fluoro-3,5-dimethyl-benzyl)-8-methyl-nonanoic acid hydroxyamide], the Ki stood at 300000 nM.

In turn, `Cc1cc(C[C@H](CCCCNCc2ccc3c(c2)OCO3)C(=O)NO)cc(C)c1F` [Compound 168148, (S)-6-[(Benzo[1,3]dioxol-5-ylmethyl)-amino]-2-(4-fluoro-3,5-dimethyl-benzyl)-hexanoic acid hydroxyamide] showed an inhibition constant (Ki) of 220 nM.

`Cc1ccc(CNCCCC[C@@H](Cc2cc(C)c(F)c(C)c2)C(=O)NO)o1` [Compound 168157, (S)-2-(4-Fluoro-3,5-dimethyl-benzyl)-6-[(5-methyl-furan-2-ylmethyl)-amino]-hexanoic acid hydroxyamide]: the Ki stood at 130 nM. Against the preceding molecule, the Ki is about 1.7-fold lower.

For the molecule `Cc1cc(C[C@H](CCCCNc2ccc(F)cc2)C(=O)NO)cc(C)c1F` [Compound 168132, (S)-2-(4-Fluoro-3,5-dimethyl-benzyl)-6-(4-fluoro-phenylamino)-hexanoic acid hydroxyamide], the Ki worked out at 2240 nM.

As to `Cc1cc(C[C@H](CCCCNCc2ccccc2)C(=O)NO)cc(C)c1F` [Compound 168149, (S)-6-Benzylamino-2-(4-fluoro-3,5-dimethyl-benzyl)-hexanoic acid hydroxyamide], affinity was put at a Ki of 130 nM.

Turning to `Cc1cc(CC(CCN(C)CCCc2ccc(F)cc2)C(=O)NO)cc(C)c1F` (stereo in doubt) [Compound 168172, (S)-2-(4-Fluoro-3,5-dimethyl-benzyl)-4-{[3-(4-fluoro-phenyl)-propyl]-methyl-amino}-N-hydroxy-butyramide], affinity was put at a Ki of 290 nM.

`Cc1cc(CCCN(C)CC[C@@H](Cc2ccc(Cl)cc2)C(=O)NO)ccc1F` [Compound 168150, 2R-(4-Chloro-benzyl)-4-{[3-(4-fluoro-3-methyl-phenyl)-propyl]-methyl-amino}-N-hydroxy-butyramide] came in with a Ki of 1750 nM.

On to `Cc1cc(C[C@H](C(=O)NO)c2ccc(Br)cc2)cc(C)c1F` [Compound 167973, (S)-2-(4-Bromo-phenyl)-3-(4-fluoro-3,5-dimethyl-phenyl)-N-hydroxy-propionamide], for which the Ki amounted to 5700 nM.

On to `Cc1cc(C[C@H](CCCCNCCCc2ccc(F)cc2)C(=O)NO)cc(C)c1F` [Compound 168123, (S)-2-(4-Fluoro-3,5-dimethyl-benzyl)-6-[3-(4-fluoro-phenyl)-propylamino]-hexanoic acid hydroxyamide], for which the Ki stood at 47 nM.

In turn, `Cc1cc(CC(C)C(=O)NO)cc(C)c1F` (centres unmarked) [Compound 167858, 2-(4-fluoro-3,5-dimethylbenzyl)-N-hydroxypropanamide] came in with a Ki of 400 nM.

`CCCCC(Cc1cc(C)c(F)c(C)c1)C(=O)NO` (centres unmarked) [Compound 167533, 2-(4-Fluoro-3,5-dimethyl-benzyl)-hexanoic acid hydroxyamide] came in with an inhibition constant Ki of 1200 nM.

With `Cc1cc(C[C@H](CCCCCC(C)C)C(=O)NO)cc(C)c1F` [Compound 168031, (S)-2-(4-Fluoro-3,5-dimethyl-benzyl)-8-methyl-nonanoic acid hydroxyamide], the affinity corresponds to a Ki of 2660 nM.

`Cc1cc(C[C@H](CCCCNCc2ccc(Cl)cc2)C(=O)NO)cc(C)c1F` [Compound 168125, (S)-6-(4-Chloro-benzylamino)-2-(4-fluoro-3,5-dimethyl-benzyl)-hexanoic acid hydroxyamide] displayed a Ki of 190 nM. This Ki is about 14-fold lower than that of the molecule before.

For the molecule `Cc1cc(C[C@H](CCCCNCc2cc3ccccc3s2)C(=O)NO)cc(C)c1F` [Compound 168180, (S)-6-[(Benzo[b]thiophen-2-ylmethyl)-amino]-2-(4-fluoro-3,5-dimethyl-benzyl)-hexanoic acid hydroxyamide], the Ki came to 400 nM. Against the preceding molecule, the Ki is about 2.1-fold higher.

`Cc1cc(C[C@H](CCCCNCC2CCCCC2)C(=O)NO)cc(C)c1F` [Compound 168170, (S)-6-(Cyclohexylmethyl-amino)-2-(4-fluoro-3,5-dimethyl-benzyl)-hexanoic acid hydroxyamide] showed a Ki of 400 nM.

`CCCCC(Cc1ccc(F)c(C)c1)C(=O)NO` (centres unmarked) [Compound 167266, 2-(4-Fluoro-3-methyl-benzyl)-hexanoic acid hydroxyamide]: the Ki came to 2300 nM.

As to `Cc1cc(C[C@H](CCCCN(C)Cc2ccc(F)cc2)C(=O)NO)cc(C)c1F` [Compound 168126, (S)-6-[(4-Fluoro-benzyl)-methyl-amino]-2-(4-fluoro-3,5-dimethyl-benzyl)-hexanoic acid hydroxyamide], affinity was put at a Ki of 550 nM.

These data come from patent US7807720B2 (priority 2007, dated 2010).
